Results taken from the CheMixHub viscosity set.
“And” between values parts separate entries of the source, which are not always exact repeats. Identical values can stand only once. ± gives the uncertainty stated by the source.

Experiment: xn = mol fraction of the nth substance listed

CC1(C)SC2C(NC(=O)C(N)c3ccccc3)C(=O)N2C1C(=O)O (configuration not stated) + O
viscosity, 101 kPa
Conditions	x1 = 9e-06	x1 = 1e-05	x1 = 2e-05	x1 = 3.2e-05	x1 = 3.6e-05	x1 = 4e-05	x1 = 5e-05	x1 = 6.8e-05	x1 = 7e-05	x1 = 7.2e-05
305.15 K	0.7656 ± 0.0095 mPa·s	0.7569 ± 0.016 mPa·s	0.7618 ± 0.02 mPa·s and 0.763 ± 0.016 mPa·s	0.7637 ± 0.02 mPa·s	0.7729 ± 0.0095 mPa·s	0.7702 ± 0.016 mPa·s	0.7649 ± 0.02 mPa·s	0.7656 ± 0.02 mPa·s	0.773 ± 0.017 mPa·s	0.7701 ± 0.0095 mPa·s
310.15 K	0.7019 ± 0.0087 mPa·s	0.6941 ± 0.015 mPa·s	0.6924 ± 0.018 mPa·s and 0.6965 ± 0.015 mPa·s	0.6948 ± 0.018 mPa·s	0.6993 ± 0.0086 mPa·s	0.6989 ± 0.015 mPa·s	0.6964 ± 0.018 mPa·s	0.6976 ± 0.018 mPa·s	0.7041 ± 0.015 mPa·s	0.7032 ± 0.0087 mPa·s
315.15 K	0.6419 ± 0.0079 mPa·s	0.6361 ± 0.014 mPa·s	0.6342 ± 0.017 mPa·s and 0.6376 ± 0.014 mPa·s	0.6356 ± 0.017 mPa·s	0.6442 ± 0.008 mPa·s	0.6407 ± 0.014 mPa·s	0.6381 ± 0.017 mPa·s	0.6398 ± 0.017 mPa·s	0.6421 ± 0.014 mPa·s	0.6399 ± 0.0079 mPa·s

CCCCn1cc[n+](C)c1.F[B-](F)(F)F + O
101 kPa
Conditions	viscosity [mPa·s]
298.15 K, x2 = 0.1036	80.9 ± 16
298.15 K, x2 = 0.6979	9.53 ± 1.1
308.15 K, x2 = 0.6004	8.69 ± 1.3
313.15 K, x2 = 0.5014	8.98 ± 1.4
318.15 K, x2 = 0.4001	9.72 ± 1.4
318.15 K, x2 = 0.5014	7.77 ± 1.2
323.15 K, x2 = 0.4001	8.41 ± 1.3

CO/N=C(\C(=O)N[C@@H]1C(=O)N2C(C(=O)O)=C(C[N+]3(C)CCCC3)CS[C@H]12)c1csc(N)n1.Cl.[Cl-] + O
Conditions	viscosity [mPa·s]
293.15 K, 101.33 kPa, x1 = 0.002414	1.235 ± 0.026

O=C[C@H](O)[C@H](O)[C@H](O)CO + O
298.15 K, 101 kPa
Conditions	viscosity [mPa·s]
x1 = 0.003513	0.95 ± 0.009
x1 = 0.01898	1.292 ± 0.014

O=P([O-])(O)O.[Na+] + O
viscosity [mPa·s]
Conditions	298.15 K	303.15 K	308.15 K	313.15 K
101 kPa, x1 = 0.0018	0.9216 ± 0.0082	0.8373 ± 0.0077	0.7482 ± 0.0072	–
101 kPa, x1 = 0.0054	0.9881 ± 0.009	0.887 ± 0.0081	0.8017 ± 0.0074	–
101 kPa, x1 = 0.0089	1.077 ± 0.0096	0.9691 ± 0.0088	0.8669 ± 0.0082	–
101 kPa, x1 = 0.012	1.17 ± 0.01	1.053 ± 0.0096	0.9301 ± 0.0089	–
101 kPa, x1 = 0.016	1.284 ± 0.011	1.151 ± 0.011	1.008 ± 0.0099	–
101.32 kPa, x1 = 0.1245	20.44 ± 2.1	–	–	–
101.32 kPa, x1 = 0.1772	–	–	–	28.59 ± 2.9

CCCCOCCOCCO + O=C1CCCN1
298.15 K, 101 kPa
Conditions	viscosity [mPa·s]
x1 = 0.0024	14.13 ± 0.3
x1 = 0.0056	14.02 ± 0.3
x1 = 0.0086	13.96 ± 0.29
x1 = 0.012	13.86 ± 0.29
x1 = 0.0205	13.67 ± 0.29
x1 = 0.0421	13.08 ± 0.28
x1 = 0.0638	12.61 ± 0.27
x1 = 0.0865	12.19 ± 0.26
x1 = 0.1132	11.69 ± 0.25
x1 = 0.1508	11.11 ± 0.24
x1 = 0.1869	10.55 ± 0.23
x1 = 0.2192	10.19 ± 0.22
x1 = 0.2979	9.265 ± 0.2
x1 = 0.3786	8.558 ± 0.18
x1 = 0.3996	8.385 ± 0.18
x1 = 0.4122	8.298 ± 0.18
x1 = 0.4764	7.823 ± 0.17
x1 = 0.5469	7.347 ± 0.16
x1 = 0.6024	7.035 ± 0.15
x1 = 0.6618	6.715 ± 0.15
x1 = 0.7147	6.434 ± 0.14
x1 = 0.7823	6.121 ± 0.14
x1 = 0.8345	5.879 ± 0.13
x1 = 0.8792	5.707 ± 0.13
x1 = 0.9066	5.597 ± 0.13
x1 = 0.9407	5.469 ± 0.12
x1 = 0.9748	5.264 ± 0.12
x2 = 0.0063	5.156 ± 0.12

Cc1cccc(C)c1 + O=C1CCCO1
viscosity [mPa·s], 101.33 kPa
Conditions	x2 = 0.1012	x2 = 0.214	x2 = 0.3091	x2 = 0.4022	x2 = 0.5343	x2 = 0.5955	x2 = 0.7101	x2 = 0.8371	x2 = 0.9027
293.15 K	0.69 ± 0.007	0.777 ± 0.008	0.859 ± 0.008	0.948 ± 0.009	1.093 ± 0.01	1.169 ± 0.011	1.332 ± 0.012	1.544 ± 0.014	1.671 ± 0.015
298.15 K	0.648 ± 0.006	0.725 ± 0.007	0.798 ± 0.008	0.88 ± 0.008	1.016 ± 0.01	1.088 ± 0.01	1.235 ± 0.011	1.437 ± 0.013	1.552 ± 0.014
303.15 K	0.61 ± 0.006	0.679 ± 0.007	0.752 ± 0.007	0.829 ± 0.008	0.951 ± 0.009	1.013 ± 0.01	1.147 ± 0.011	1.325 ± 0.012	1.431 ± 0.013
308.15 K	0.573 ± 0.006	0.636 ± 0.006	0.692 ± 0.007	0.761 ± 0.007	0.875 ± 0.008	0.936 ± 0.009	1.06 ± 0.01	1.226 ± 0.011	1.323 ± 0.012

CC(O)CC(C)(C)O (configuration not stated) + O=Cc1ccccc1
viscosity [mPa·s], 101 kPa
Conditions	x1 = 0.0921	x1 = 0.1829	x1 = 0.2762	x1 = 0.3752	x1 = 0.4712	x1 = 0.5787	x1 = 0.6736	x1 = 0.775	x1 = 0.8828
308.15 K	1.337 ± 0.13	1.484 ± 0.15	1.717 ± 0.17	2.062 ± 0.21	2.679 ± 0.27	3.484 ± 0.35	4.864 ± 0.49	7.155 ± 0.72	10.92 ± 1.1
318.15 K	1.004 ± 0.1	1.149 ± 0.12	1.368 ± 0.14	1.7 ± 0.17	2.157 ± 0.22	2.801 ± 0.28	3.804 ± 0.38	5.903 ± 0.59	9.45 ± 0.95

CC(O)CC(C)(C)O (configuration not stated) + O=[N+]([O-])c1ccccc1
viscosity [mPa·s], 101 kPa
Conditions	x1 = 0.0918	x1 = 0.1905	x1 = 0.2926	x1 = 0.3853	x1 = 0.4886	x1 = 0.5862	x1 = 0.6895	x1 = 0.7727	x1 = 0.8991
308.15 K	1.724 ± 0.17	1.903 ± 0.19	2.194 ± 0.22	2.574 ± 0.26	3.288 ± 0.33	4.074 ± 0.41	5.512 ± 0.55	7.423 ± 0.74	12.38 ± 1.2
318.15 K	1.332 ± 0.13	1.478 ± 0.15	1.703 ± 0.17	2.012 ± 0.2	2.606 ± 0.26	3.222 ± 0.32	4.571 ± 0.46	6.127 ± 0.61	10.82 ± 1.1
